Earlier results in publication PMC4310808 (European journal of medicinal chemistry, 2014).
No end group written: not given here.

Tested on: erythrocytes

For “GIINTLQKYYCRVRGGRCAVLSCLPKEEQIGKCSTRGRKCCRRKK (also: bicyclic or more (positions not given here)) [HβD-3, Human beta defensin-3]”, the “Hemolytic activity at physiological salt concentrations” value is given as “no hemolytic activity”.
